Experimental findings from ChEMBL document CHEMBL4823256 (J Med Chem, 2021) are described below.

Molecules are shown by their SMILES.

System in one data set: not listed separately
Kind of data set: in vitro. To be noted: human, HEp-2 cells.
The term CC50 denotes the concentration at which the toxic effect on the cells reaches its halfway point. High values mean lower toxicity to the cells, low ones greater toxicity to the cells. The compound `C[C@H](NP(=O)(OC[C@H]1O[C@@](C#N)(c2ccc3c(N)ncnn23)[C@H](O)[C@@H]1O)Oc1ccccc1)C(=O)OC1CCCC1` (some centres not stated) came in with a half-maximal cytotoxic concentration (CC50) greater than 80000 nM.

In turn, `C[C@H](NP(=O)(OC[C@H]1O[C@@](C#N)(c2ccc3c(N)ncnn23)[C@H](O)[C@@H]1O)Oc1ccccc1)C(=O)OCC1CC1` (some centres not stated) gave a CC50 of 50000 nM. That is a double-digit micromolar value.

Turning to `CCC(CC)COC(=O)[C@H](C)N[P@@](=O)(OC[C@H]1O[C@@](C#N)(c2ccc3c(N)ncnn23)[C@H](O)[C@@H]1O)Oc1ccccc1`, it took 26000 nM to reach half-maximal cytotoxicity (CC50).

Compound `CC(=O)OC[C@H]1O[C@@](C#N)(c2ccc3c(N)ncnn23)[C@H](OC(C)=O)[C@@H]1OC(C)=O` registered a cytotoxic concentration (CC50) greater than 100000 nM.

In turn, `CCC(CC)COC(=O)[C@H](C)NP(=O)(N[C@@H](C)C(=O)OCC(CC)CC)OC[C@H]1O[C@@](C#N)(c2ccc3c(N)ncnn23)[C@H](O)[C@@H]1O` yielded a 50% cytotoxic concentration (CC50) of 36000 nM. This lies in the double-digit micromolar range.

The compound `C#C[C@@]1(c2ccc3c(N)ncnn23)O[C@H](COP(=O)(N[C@@H](C)C(=O)OCC(CC)CC)Oc2ccccc2)[C@@H](O)[C@H]1O` (some centres not stated) registered a CC50 greater than 100000 nM.

Compound `C[C@@]1(O)[C@H](O)[C@@H](CO)O[C@@]1(C#N)c1ccc2c(N)ncnn12` had a 50% cytotoxic concentration (CC50) greater than 100000 nM.

System in another data set: not listed separately
As to the kind of experiment: in vitro. To be noted: human, Huh-7 cells.
In the case of `C[C@@]1(O)[C@H](O)[C@@H](CO)O[C@@]1(C#N)c1ccc2c(N)ncnn12`, the CC50 at 72 h was greater than 89000 nM.

System in another data set: not listed separately
As to the kind of experiment: in vitro. The note with it: human, MT4 cells.
As to `C[C@@]1(O)[C@H](O)[C@@H](CO)O[C@@]1(C#N)c1ccc2c(N)ncnn12`, the CC50 at 120 h was greater than 200000 nM.

System in the next data set: not listed separately
As to the kind of experiment: in vitro. The note with it: human, Caco-2.
As a reminder, the Papp A→B is the apparent permeability from the apical to the basolateral side of a cell layer. `CC(=O)OC[C@H]1O[C@@](C#N)(c2ccc3c(N)ncnn23)[C@H](OC(C)=O)[C@@H]1OC(C)=O` gave a Papp A→B of 0.9 ×10⁻⁶ cm/s.

System in the next data set: not listed separately
Kind of data set: in vitro. To be noted: human, Caco-2. The source holds these as a separate data set.
As a reminder, the Papp B→A is the apparent permeability from the basolateral to the apical side of a cell layer. Compound `CC(=O)OC[C@H]1O[C@@](C#N)(c2ccc3c(N)ncnn23)[C@H](OC(C)=O)[C@@H]1OC(C)=O` had a Papp B→A of 1.9 ×10⁻⁶ cm/s.

System in the next data set: not listed separately
Kind of data set: in vitro. To be noted: human, HEp-2 cells. The source holds these as a separate data set.
For `C[C@H](NP(=O)(OC[C@H]1O[C@@](C#N)(c2ccc3c(N)ncnn23)[C@H](O)[C@@H]1O)Oc1ccccc1)C(=O)OCC1CC1` (some centres not stated), the selectivity ratio was determined as 1140.

Regarding `CCC(CC)COC(=O)[C@H](C)NP(=O)(N[C@@H](C)C(=O)OCC(CC)CC)OC[C@H]1O[C@@](C#N)(c2ccc3c(N)ncnn23)[C@H](O)[C@@H]1O`, the selectivity ratio was determined as 116.

The same data set, now with this note: human, HEp-2 cells, Ratio CC50/EC50.
For `C[C@H](NP(=O)(OC[C@H]1O[C@@](C#N)(c2ccc3c(N)ncnn23)[C@H](O)[C@@H]1O)Oc1ccccc1)C(=O)OC1CCCC1` (some centres not stated), the selectivity ratio is 471.

For the compound `C#C[C@@]1(c2ccc3c(N)ncnn23)O[C@H](COP(=O)(N[C@@H](C)C(=O)OCC(CC)CC)Oc2ccccc2)[C@@H](O)[C@H]1O` (some centres not stated), the selectivity ratio is greater than 133.

The subject of the next data set is Human orthopneumovirus. As to the kind of experiment: microbe, parasite or virus in culture. To be noted: human respiratory syncytial virus, A2, HEp-2, 96 h.
The EC50 is the concentration giving half of the maximal effect. A higher EC50 goes with a need for much substance. `C[C@H](NP(=O)(OC[C@H]1O[C@@](C#N)(c2ccc3c(N)ncnn23)[C@H](O)[C@@H]1O)Oc1ccccc1)C(=O)OC1CCCC1` (some centres not stated) gave a 50% effective concentration (EC50) of 170 nM. In other words, the sub-micromolar range.

The compound `C[C@H](NP(=O)(OC[C@H]1O[C@@](C#N)(c2ccc3c(N)ncnn23)[C@H](O)[C@@H]1O)Oc1ccccc1)C(=O)OCC1CC1` (some centres not stated) came in with an EC50 of 44 nM.

In turn, `CCC(CC)COC(=O)[C@H](C)N[P@@](=O)(OC[C@H]1O[C@@](C#N)(c2ccc3c(N)ncnn23)[C@H](O)[C@@H]1O)Oc1ccccc1` gave a half-maximal effective concentration (EC50) of 28 nM.

In the case of `CC(=O)OC[C@H]1O[C@@](C#N)(c2ccc3c(N)ncnn23)[C@H](OC(C)=O)[C@@H]1OC(C)=O`, the midpoint of the response, the EC50, lay at 820 nM.

Consider `CCC(CC)COC(=O)[C@H](C)NP(=O)(N[C@@H](C)C(=O)OCC(CC)CC)OC[C@H]1O[C@@](C#N)(c2ccc3c(N)ncnn23)[C@H](O)[C@@H]1O`, for which the EC50 was found to be 310 nM.

Compound `C#C[C@@]1(c2ccc3c(N)ncnn23)O[C@H](COP(=O)(N[C@@H](C)C(=O)OCC(CC)CC)Oc2ccccc2)[C@@H](O)[C@H]1O` (some centres not stated) showed an EC50 of 750 nM.

`C[C@@]1(O)[C@H](O)[C@@H](CO)O[C@@]1(C#N)c1ccc2c(N)ncnn12`: the concentration for a half-maximal effect (EC50) was greater than 100000 nM.

The subject of another data set is Hepatitis C virus. Kind of data set: microbe, parasite or virus in culture. The note with it: subtype 1b, Huh-7, 72 h.
`C[C@@]1(O)[C@H](O)[C@@H](CO)O[C@@]1(C#N)c1ccc2c(N)ncnn12` gave a concentration giving a half-maximal response (EC50) greater than 89000 nM.

Another data set has as its system Respiratory syncytial virus. Kind of data set: microbe, parasite or virus in culture. To be noted: human respiratory syncytial virus, Primary bronchial epithelial cell, 72 h.
In turn, `C[C@H](NP(=O)(OC[C@H]1O[C@@](C#N)(c2ccc3c(N)ncnn23)[C@H](O)[C@@H]1O)Oc1ccccc1)C(=O)OC1CCCC1` (some centres not stated) had a 50% effective concentration (EC50) of 350 nM.

Take `C[C@H](NP(=O)(OC[C@H]1O[C@@](C#N)(c2ccc3c(N)ncnn23)[C@H](O)[C@@H]1O)Oc1ccccc1)C(=O)OCC1CC1` (some centres not stated): it took 620 nM to reach a half-maximal effect (EC50).

Regarding `CCC(CC)COC(=O)[C@H](C)N[P@@](=O)(OC[C@H]1O[C@@](C#N)(c2ccc3c(N)ncnn23)[C@H](O)[C@@H]1O)Oc1ccccc1`, a half-maximal effect (EC50) was put at 65 nM.

As for `CCC(CC)COC(=O)[C@H](C)NP(=O)(N[C@@H](C)C(=O)OCC(CC)CC)OC[C@H]1O[C@@](C#N)(c2ccc3c(N)ncnn23)[C@H](O)[C@@H]1O`, the EC50 was determined as 170 nM.
